From PMC10584170, “Machine learning-based phenotypic imaging to characterise the targetable biology of Plasmodium falciparum male gametocytes for the development of transmission-blocking antimalarials” (PLOS Pathogens, 2023)

How the values were obtained:
[1] = system: P. falciparum male gametocytes; experiment: P. falciparum Dual Gamete Formation Assay (PfDGFA), male readout (exflagellation); assay type: cell-based, Plasmodium falciparum NF54; conditions: for Average inhibition male (%): average of replicates; for % inhibition male (individual replicates) R1: replicate R1; for % inhibition male (individual replicates) R3: replicate R3; for % inhibition male (individual replicates) R4: replicate R4
In short: (§1)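 Read-outs are automated image counts of exflagellation centres (brightfield, 10 frames over 1 s) and Pfs25-positive female gametes (Cy3 fluorescence).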

[2] = system: P. falciparum female gametocytes; experiment: P. falciparum Dual Gamete Formation Assay (PfDGFA), female readout (Pfs25-positive female gametes); assay type: cell-based, Plasmodium falciparum NF54; conditions: for Average inhibition female (%): average of replicates; for % inhibition female (individual replicates) R1: replicate R1; for % inhibition female (individual replicates) R3: replicate R3; for % inhibition female (individual replicates) R4: replicate R4
In short: as §1

[3] = 2µM, 24h preincubation with gametocytes
[4] = PfDGFA at 2µM, 24h preincubation with gametocytes prior to induction of gametogenesis
[5] = PfDGFA at 2µM, 24h preincubation
[6] = PfDGFA at 2µM, 24h preincubation with gametocytes
[7] = 2µM, 24h preincubation with gametocytes prior to induction of gametogenesis
[8] = 2µM, 24h preincubation, number of replicates with >50% inhibition in the male readout
[9] = 2µM, 24h preincubation, number of replicates with >50% inhibition in the female readout

Compound: CCCc1cc2c3c(N)nc(N)nc3ccc2n1CC [TCMDC-137946]
- Average inhibition male (%) [1, 3]: 95.8%
- % inhibition male (individual replicates) R1 [1, 3]: 97.3%
- % inhibition male (individual replicates) R3 [1, 3]: 96.2%
- % inhibition male (individual replicates) R4 [1, 3]: 104.1%
- Average inhibition female (%) [2, 3]: 82.6%
- % inhibition female (individual replicates) R1 [2, 3]: 82.8%
- % inhibition female (individual replicates) R3 [2, 3]: 88.8%
- % inhibition female (individual replicates) R4 [2, 3]: 84.8%

Compound: CCCC(CC)n1ccc2c3c(N)nc(N)nc3ccc21.CS(=O)(=O)O (stereo not drawn) [TCMDC-137948]
- % inhibition male (individual replicates) R1 [1, 4]: 21.2%
- % inhibition male (individual replicates) R3 [1, 4]: 21.4%
- % inhibition male (individual replicates) R4 [1, 4]: 12.8%
- Average inhibition male (%) [1, 5]: 22.4%
- % inhibition female (individual replicates) R1 [2, 4]: -1.7%
- % inhibition female (individual replicates) R3 [2, 4]: -3.2%
- % inhibition female (individual replicates) R4 [2, 4]: -13.6%
- Average inhibition female (%) [2, 5]: -8.1%

Compound: CCCC(CCC)n1ccc2c3c(N)nc(N)nc3ccc21.Cl [TCMDC-137949]
- % inhibition male (individual replicates) R1 [1, 4]: 35.5%
- % inhibition male (individual replicates) R3 [1, 4]: 0.4%
- % inhibition male (individual replicates) R4 [1, 4]: -40.5%
- Average inhibition male (%) [1, 5]: 0.9%
- % inhibition female (individual replicates) R1 [2, 4]: 4.6%
- % inhibition female (individual replicates) R3 [2, 4]: 19.1%
- % inhibition female (individual replicates) R4 [2, 4]: -10.8%
- Average inhibition female (%) [2, 5]: 3.5%

Compound: CCCOc1c(CCNCCCCNCCc2ccc3ccccc3c2OCCC)ccc2ccccc12.CS(=O)(=O)O [TCMDC-137950]
- Average inhibition male (%) [1, 6]: 74.1%
- % inhibition male (individual replicates) R1 [1, 6]: 87.0%
- % inhibition male (individual replicates) R3 [1, 6]: 74.0%
- % inhibition male (individual replicates) R4 [1, 6]: 95.7%
- HitlevelM ([1]; number of replicates with >50% inhibition in the male readout, 2µM): 3
- Average inhibition female (%) [2, 6]: 65.5%
- % inhibition female (individual replicates) R1 [2, 6]: 72.1%
- % inhibition female (individual replicates) R3 [2, 6]: 62.6%
- % inhibition female (individual replicates) R4 [2, 6]: 79.5%
- HitlevelF ([2]; number of replicates with >50% inhibition in the female readout, 2µM): 3

Compound: COc1cc2ccccc2cc1CNCCCCCCNCc1cc2ccccc2cc1OC.CS(=O)(=O)O [TCMDC-137955]
- Average inhibition male (%) [1, 7]: 53.1%
- % inhibition male (individual replicates) R1 [1, 7]: 58.5%
- % inhibition male (individual replicates) R3 [1, 7]: -7.9%
- % inhibition male (individual replicates) R4 [1, 7]: 78.9%
- HitlevelM [1, 8]: 3
- Average inhibition female (%) [2, 7]: 14.7%
- % inhibition female (individual replicates) R1 [2, 7]: 13.5%
- % inhibition female (individual replicates) R3 [2, 7]: -9.9%
- % inhibition female (individual replicates) R4 [2, 7]: 5.4%
- HitlevelF [2, 9]: 0

Compound: Cc1cc2c3c(N)nc(N)nc3ccc2n1C [TCMDC-137957]
- Average inhibition male (%) [1, 7]: 2.4%
- % inhibition male (individual replicates) R1 [1, 7]: -0.85%
- % inhibition male (individual replicates) R3 [1, 7]: -3.6%
- % inhibition male (individual replicates) R4 [1, 7]: 3.4%
- HitlevelM [1, 8]: 0
- Average inhibition female (%) [2, 7]: 31.9%
- % inhibition female (individual replicates) R1 [2, 7]: 39.3%
- % inhibition female (individual replicates) R3 [2, 7]: 32.6%
- % inhibition female (individual replicates) R4 [2, 7]: 34.2%
- HitlevelF [2, 9]: 0

Compound: Nc1nc(N)c2c(ccc3c2ccn3CCCCO)n1 [TCMDC-137959]
- % inhibition male (individual replicates) R1 [1, 4]: 21.0%
- % inhibition male (individual replicates) R4 [1, 4]: -1.8%
- Average inhibition male (%) [1, 5]: 15.1%
- % inhibition female (individual replicates) R1 [2, 4]: -0.01%
- % inhibition female (individual replicates) R3 [2, 4]: -3.7%
- % inhibition female (individual replicates) R4 [2, 4]: 2.0%
- Average inhibition female (%) [2, 5]: -0.9%

Compound: Nc1nc(N)c2c(ccc3nn(C4CCCC4)cc32)n1 [TCMDC-137960]
- Average inhibition male (%) [1, 7]: -1.6%
- % inhibition male (individual replicates) R1 [1, 7]: 13.2%
- % inhibition male (individual replicates) R4 [1, 7]: -27.5%
- HitlevelM ([1]; 2µM, 24h preincubation, hits selected on >50% inhibition in the male readout across replicates): 0
- Activity ([1]; PfDGFA at 2µM, 24h preincubation, hit = >50% inhibition in male or female readout in at least 3 replicates, 0 = no class assigned): 0
- Average inhibition female (%) [2, 7]: 4.4%
- % inhibition female (individual replicates) R1 [2, 7]: 5.0%
- % inhibition female (individual replicates) R3 [2, 7]: 5.0%
- % inhibition female (individual replicates) R4 [2, 7]: 9.1%
- HitlevelF ([2]; 2µM, 24h preincubation, hits selected on >50% inhibition in the female readout across replicates): 0

Compound: CCCCCCOc1ccc2ccccc2c1CNCCCCCCNCc1c(OCCCCCC)ccc2ccccc12.CS(=O)(=O)O [TCMDC-137963]
- Average inhibition male (%) [1, 7]: 26.5%
- % inhibition male (individual replicates) R1 [1, 7]: 35.9%
- % inhibition male (individual replicates) R3 [1, 7]: 2.2%
- % inhibition male (individual replicates) R4 [1, 7]: 25.6%
- HitlevelM [1, 8]: 0
- Average inhibition female (%) [2, 7]: 30.9%
- % inhibition female (individual replicates) R1 [2, 7]: 24.3%
- % inhibition female (individual replicates) R3 [2, 7]: 23.7%
- % inhibition female (individual replicates) R4 [2, 7]: 29.4%
- HitlevelF [2, 9]: 0
